Results taken from ChEMBL document CHEMBL1201862, “PubChem BioAssay data set” (2004).
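Protocol summary: plate cells (96-well), add compound at 5 concentrations, incubate 48 h, interpolate endpoints linearly. Here, GI50 denotes the concentration required for 50% inhibition of growth.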 Active and inactive are the calls of the source. No stated cut-off is given here; in the data, active = GI50 up to about 1.1 µM and inactive = higher. *1 amine or outer side, *2 acyl side, *3 side chain or, on linkers, in order; H or OH if unused. Where a SMILES comes first, the peptide text is derived from it. Bridges are numbered along the chain shown (N, C = ends). [ ]: non-standard residue; d: D form. ξ: configuration not given here. X10 = CCC(C)C(N[*:1])C(O)CC(=O)O[C@H](C(=O)C(C)C(=O)[*:2])C(C)C; NMeY = CN[C@@H](Cc1ccc(O)cc1)C(=O)O; ξNMeL = CNC(CC(C)C)C(=O)O; ξT = CC(O)C(N)C(=O)O

What was measured:
Assay in all cases: DTP human tumour cell line panel, 48 h
A498 = system: A498
CAKI-1 = system: CAKI-1
SNB-19 = system: SNB-19
SF-295 = system: SF-295
M14 = system: M14
HCT-15 = system: HCT-15
HOP-62 = system: HOP-62
RPMI-8226 = system: RPMI-8226
NCI-H23 = system: NCI-H23
EKVX = system: EKVX
HT-29 = system: HT-29
UO-31 = system: UO-31
TK-10 = system: TK-10
UACC-62 = system: UACC-62
COLO 205 = system: COLO 205
DU-145 = system: DU-145
MDA-N = system: MDA-N
NCI/ADR-RES = system: NCI/ADR-RES

Structure (SMILES)	GI50 (A498)	GI50 (CAKI-1)	GI50 (SNB-19)	GI50 (SF-295)	GI50 (M14)	GI50 (HCT-15) [µM]	GI50 (HOP-62)	GI50 (RPMI-8226)	GI50 (NCI-H23)	GI50 (EKVX)	GI50 (HT-29)	GI50 (UO-31)	GI50 (TK-10)	GI50 (UACC-62)	GI50 (COLO 205)	GI50 (DU-145)	GI50 (MDA-N)	GI50 (NCI/ADR-RES)
N#CCC1C2CC3C(C2=O)C13 (stereo unspecified)	> 100 µM (inactive)	> 100 µM (inactive)	> 100 µM (inactive)	> 100 µM (inactive)	> 100 µM (inactive)	> 100	> 100 µM (inactive)	> 100 µM (inactive)	> 100 µM (inactive)	> 100 µM (inactive)	> 100 µM (inactive)	> 100 µM (inactive)	> 100 µM (inactive)	> 100 µM (inactive)	> 100 µM (inactive)	> 100 µM (inactive)	> 100 µM (inactive)	> 100 µM (inactive)
CC1=NN(c2cccc(Cl)c2)C2(C1)SCC(=O)N2c1nc2ccccc2s1 (stereo unspecified)	27.9 µM (inactive)	32.6 µM (inactive)	36 µM (inactive)	23.2 µM (inactive)	26.7 µM (inactive)	33.2	19.4 µM (inactive)	16.3 µM (inactive)	29.2 µM (inactive)	29.7 µM (inactive)	27.1 µM (inactive)	21.1 µM (inactive)	30.2 µM (inactive)	29.5 µM (inactive)	18.1 µM (inactive)	24.6 µM (inactive)	33 µM (inactive)	32.1 µM (inactive)
COc1cc(Oc2nc3c(N)cc(C(F)(F)F)cc3nc2-c2ccccc2)cc(OC)c1OC	7.89 µM (inactive)	3.98 µM (inactive)	3.17 µM (inactive)	1.95 µM (inactive)	5.81 µM (inactive)	3.53	3.29 µM (inactive)	2.45 µM (inactive)	2.82 µM (inactive)	13.1 µM (inactive)	1.49 µM (inactive)	11.2 µM (inactive)	26.1 µM (inactive)	1.66 µM (inactive)	3.62 µM (inactive)	8.55 µM (inactive)	0.412 µM (active)	2.09 µM (inactive)
CCC(C)C1NC(=O)C(NC(=O)C(CC(C)C)N(C)C(=O)[C@@H]2CCCN2)C(C)OC(=O)[C@H](Cc2ccc(OC)cc2)N(C)C(=O)[C@@H]2CCCN2C(=O)[C@H](CC(C)C)NC(=O)C(C)C(=O)[C@H](C(C)C)OC(=O)CC1O (stereo partly specified) (H-P[ξNMeL][ξT][X10]LP[NMeY](Me); ester 3-C)	0.00411 µM (active)	0.00869 µM (active)	0.000721 µM (active)	0.00144 µM (active)	0.000222 µM (active)	0.016	0.00126 µM (active)	0.00116 µM (active)	0.000258 µM (active)	< 0.01 µM (active)	0.000195 µM (active)	0.0214 µM (active)	0.00355 µM (active)	< 0.0001 µM (active)	0.000153 µM (active)	0.00227 µM (active)	0.000346 µM (active)	0.0521 µM (active)
Cc1ccc(O)c(-c2cc(-c3cccc(Br)c3)on2)c1	68.9 µM (inactive)	23.4 µM (inactive)	39.3 µM (inactive)	32.4 µM (inactive)	36.8 µM (inactive)	31.4	47.8 µM (inactive)	25.2 µM (inactive)	37.1 µM (inactive)	34.4 µM (inactive)	25.5 µM (inactive)	70.3 µM (inactive)	21.9 µM (inactive)	28.6 µM (inactive)	18.2 µM (inactive)	33.6 µM (inactive)	25.6 µM (inactive)	31.8 µM (inactive)
CCNC(=S)NNC(=O)CSc1nc2ccc(I)cc2c(=O)n1Cc1ccccc1	14.5 µM (inactive)	0.374 µM (active)	> 87.5 µM (inactive)	25.4 µM (inactive)	38.4 µM (inactive)	14.7	35.8 µM (inactive)	14.8 µM (inactive)	21.6 µM (inactive)	15.8 µM (inactive)	18.1 µM (inactive)	0.0299 µM (active)	> 51.2 µM (inactive)	> 27.6 µM (inactive)	25.7 µM (inactive)	> 79.4 µM (inactive)	13.5 µM (inactive)	22 µM (inactive)
COc1cc2c(/C=C3/C(=O)Nc4ccccc43)c(Cl)[nH]c2cc1C	0.0632 µM (active)	0.0689 µM (active)	0.0486 µM (active)	0.0252 µM (active)	0.0366 µM (active)	0.0408	0.107 µM (active)	0.0551 µM (active)	0.0407 µM (active)	0.0521 µM (active)	0.0495 µM (active)	0.0745 µM (active)	0.173 µM (active)	0.0371 µM (active)	0.0552 µM (active)	0.0955 µM (active)	0.0191 µM (active)	0.0263 µM (active)
